Laboratory results as given in ChEMBL document CHEMBL5052832, “Inhibition of ngly1 for the treatment of cancer” (2021).
The source made the active and inactive calls. No cut-off for these calls is given here.

How the values were obtained:
[1] = target: T1, Peptide-N(4)-(N-acetyl-beta-glucosaminyl)asparagine amidase (Homo sapiens) (UniProt Q96IV0); experiment: Inhibition of NGLY1 in human UACC-257 cells at 200 uM assessed as increase in IL-29 production measured after 48 hrs; format: cell-based
T1 sequence (whole entry): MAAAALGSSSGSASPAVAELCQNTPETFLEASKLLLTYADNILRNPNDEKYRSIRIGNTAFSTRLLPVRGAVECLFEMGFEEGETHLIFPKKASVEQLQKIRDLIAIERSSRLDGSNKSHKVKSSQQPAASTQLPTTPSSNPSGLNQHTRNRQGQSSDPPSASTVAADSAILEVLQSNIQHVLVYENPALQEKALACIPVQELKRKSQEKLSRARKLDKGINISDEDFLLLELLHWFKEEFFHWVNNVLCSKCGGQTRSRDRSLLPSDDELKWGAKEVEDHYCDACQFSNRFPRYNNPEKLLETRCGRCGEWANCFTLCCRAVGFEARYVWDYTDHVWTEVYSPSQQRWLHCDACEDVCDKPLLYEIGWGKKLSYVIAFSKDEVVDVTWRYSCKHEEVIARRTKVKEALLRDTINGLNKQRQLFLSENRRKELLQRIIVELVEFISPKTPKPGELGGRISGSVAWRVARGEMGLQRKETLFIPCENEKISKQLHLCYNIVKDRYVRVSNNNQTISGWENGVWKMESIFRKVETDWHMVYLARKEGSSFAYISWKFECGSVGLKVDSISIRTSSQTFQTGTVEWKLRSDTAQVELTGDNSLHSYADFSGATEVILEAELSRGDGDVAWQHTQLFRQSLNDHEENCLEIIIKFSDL

[2] = system: SK-MEL-2; experiment: Antiproliferative activity against human SK-MEL-2 cells at 10 to 1000 uM assessed as decrease in cell viability; format: functional, cell-based; conditions: dose 10-1000 µM
[3] = Antiproliferative activity against human HDF51 cells at 10 to 1000 uM assessed as decrease in cell viability; format: toxicity, cell-based; conditions: hdf51, 1000 µM, dose 10-1000 µM
[4] = target: T1, Peptide-N(4)-(N-acetyl-beta-glucosaminyl)asparagine amidase (Homo sapiens); experiment: Inhibition of NGLY1 in human HDF51 cells at 200 uM assessed as increase in IL-29 production measured after 48 hrs; format: cell-based
[5] = target: T1, Peptide-N(4)-(N-acetyl-beta-glucosaminyl)asparagine amidase (Homo sapiens); experiment: Inhibition of NGLY1 in human HDF51 cells at 200 uM assessed as increase in IFN-beta1 production measured after 48 hrs; format: cell-based
[6] = target: T1, Peptide-N(4)-(N-acetyl-beta-glucosaminyl)asparagine amidase (Homo sapiens); experiment: Inhibition of NGLY1 in human SK-MEL-2 cells at 200 uM assessed as increase in IFN-beta1 production measured after 48 hrs; format: cell-based
[7] = Antiproliferative activity against human HDF418 cells at 10 to 1000 uM assessed as decrease in cell viability; format: toxicity, cell-based; conditions: hdf418, 1000 µM, dose 10-1000 µM
[8] = target: T1, Peptide-N(4)-(N-acetyl-beta-glucosaminyl)asparagine amidase (Homo sapiens); experiment: Inhibition of NGLY1 in human UACC-257 cells at 200 uM assessed as increase in IFN-beta1 production measured after 48 hrs; format: cell-based
[9] = target: T1, Peptide-N(4)-(N-acetyl-beta-glucosaminyl)asparagine amidase (Homo sapiens); experiment: Inhibition of NGLY1 in human SK-MEL-2 cells at 200 uM assessed as increase in IL-29 production measured after 48 hrs; format: cell-based
[10] = system: UACC-257; experiment: Antiproliferative activity against human UACC-257 cells at 10 to 1000 uM assessed as decrease in cell viability; format: functional, cell-based; conditions: dose 10-1000 µM
[11] = system: UACC-257; experiment: Antiproliferative activity against doxycycline-induced NGLY1 knocked down human UACC-257 cells at 20 uM in presence of dacarbazine assessed as decrease in growth inhibition after 72 hrs by MTT assay; format: functional, cell-based
[12] = system: SK-MEL-2; experiment: Antiproliferative activity against human SK-MEL-2 cells assessed as decrease in cell viability in presence of dacarbazine; format: functional, cell-based
[13] = system: SK-MEL-2; experiment: Antiproliferative activity against human SK-MEL-2 cells assessed as decrease in cell viability in presence of bortezomib; format: functional, cell-based
[14] = system: Malme-3M; experiment: Antiproliferative activity against doxycycline-induced NGLY1 knocked down human Malme-3M cells at 20 uM in presence of dacarbazine assessed as decrease in growth inhibition after 72 hrs by MTT assay; format: functional, cell-based
[15] = target: T1, Peptide-N(4)-(N-acetyl-beta-glucosaminyl)asparagine amidase (Homo sapiens); experiment: Inhibition of NGLY1 in human HEK293T cells at 200 uM assessed as retention of N-glycans on full-length NFE2L1 measured by electrophoretic mobility shift assay; format: cell-based

Activity [1] | Activity [4] | Activity [5] | Activity [6] | Activity [8] | Activity [9] | inhibition [15] | Structure (SMILES) | Activity [2] | Activity [3] | Activity [7] | Activity [10] | Activity [11] | Activity [12] | Activity [13] | Activity [14]
Active | inactive | inactive | Active | Active | Active | – | C=CS(=O)(=O)N[C@@H](CC(=O)N[C@@H]1O[C@H](COC(C)=O)[C@@H](OC(C)=O)[C@H](OC(C)=O)[C@H]1NC(C)=O)C(=O)NCCC | Active | Non-Toxic | Non-Toxic | Active | Active | – | – | –
Active | inactive | inactive | Active | Active | Active | – | C=CC(=O)N[C@@H](CC(=O)N[C@@H]1O[C@H](COC(C)=O)[C@@H](OC(C)=O)[C@H](OC(C)=O)[C@H]1NC(C)=O)C(=O)NCCC | Active | Non-Toxic | Non-Toxic | Active | Active | Active | – | –
– | – | – | – | – | – | – | CCCNC(=O)[C@H](CC(=O)N[C@@H]1O[C@H](COC(C)=O)[C@@H](OC(C)=O)[C@H](OC(C)=O)[C@H]1NC(C)=O)NC(=O)/C=C/CN(C)C | Active | Non-Toxic | Non-Toxic | Active | Active | – | – | –
Active | – | – | Active | Active | Active | Active | CCCNC(=O)[C@H](CC(=O)N[C@@H]1O[C@H](COC(C)=O)[C@@H](OC(C)=O)[C@H](OC(C)=O)[C@H]1NC(C)=O)NC(=O)CCl | Active | Non-Toxic | Non-Toxic | Active | Active | – | Active | Active
